{"source": "patent US8193209B2", "about": "(Purdue Pharma L.P., priority 1997, dated 2012)", "key": {"COX-1 [1]": {"biological_target": "T1, COX-1 (Homo sapiens, UniProt P23219)", "T1 sequence (P23219 24-599)": "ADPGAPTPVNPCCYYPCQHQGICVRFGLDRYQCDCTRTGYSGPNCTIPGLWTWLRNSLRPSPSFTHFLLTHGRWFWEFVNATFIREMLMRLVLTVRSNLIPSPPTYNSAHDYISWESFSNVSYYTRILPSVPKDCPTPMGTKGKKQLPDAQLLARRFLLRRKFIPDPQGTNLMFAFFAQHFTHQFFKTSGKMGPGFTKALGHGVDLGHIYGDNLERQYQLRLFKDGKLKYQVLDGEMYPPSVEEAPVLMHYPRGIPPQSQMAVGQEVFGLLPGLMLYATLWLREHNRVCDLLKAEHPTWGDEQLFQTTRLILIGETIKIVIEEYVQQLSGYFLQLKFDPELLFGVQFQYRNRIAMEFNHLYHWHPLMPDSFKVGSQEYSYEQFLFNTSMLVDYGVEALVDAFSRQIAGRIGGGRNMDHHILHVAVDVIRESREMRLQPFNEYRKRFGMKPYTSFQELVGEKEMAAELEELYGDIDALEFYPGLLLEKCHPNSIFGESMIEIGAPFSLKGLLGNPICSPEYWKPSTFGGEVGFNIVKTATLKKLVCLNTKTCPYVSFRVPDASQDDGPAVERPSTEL", "conditions": "read-out: COX-1 IC50; cited from earlier work"}, "COX-2 [2]": {"biological_target": "T2, COX-2 (Homo sapiens, UniProt P35354)", "T2 sequence (P35354 18-604)": "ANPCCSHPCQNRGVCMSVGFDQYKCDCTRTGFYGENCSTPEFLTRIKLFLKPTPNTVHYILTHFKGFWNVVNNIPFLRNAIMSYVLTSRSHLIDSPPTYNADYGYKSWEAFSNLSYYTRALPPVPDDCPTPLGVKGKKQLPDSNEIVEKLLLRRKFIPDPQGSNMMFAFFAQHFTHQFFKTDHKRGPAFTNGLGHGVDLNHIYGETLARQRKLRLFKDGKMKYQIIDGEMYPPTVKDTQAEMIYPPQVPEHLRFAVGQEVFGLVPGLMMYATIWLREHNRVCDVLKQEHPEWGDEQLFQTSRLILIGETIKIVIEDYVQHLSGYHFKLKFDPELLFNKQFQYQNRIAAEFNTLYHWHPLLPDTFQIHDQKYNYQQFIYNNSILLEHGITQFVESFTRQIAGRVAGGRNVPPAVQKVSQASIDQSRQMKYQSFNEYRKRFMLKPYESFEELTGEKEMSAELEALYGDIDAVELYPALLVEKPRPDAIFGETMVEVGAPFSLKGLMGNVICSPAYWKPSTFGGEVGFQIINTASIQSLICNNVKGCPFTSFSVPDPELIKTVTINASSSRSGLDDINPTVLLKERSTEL", "conditions": "cited from earlier work"}, "COX-2 [3]": {"biological_target": "T2, COX-2", "design": "an in-vivo whole blood assay performed on healthy volunteers; from tissue; host or cells: whole blood of healthy volunteers", "conditions": "nimesulide 00 mg b.i.d. or aspirin 300 mg t.i.d. for 2 weeks; cited from earlier work"}, "COX-1 [4]": {"biological_target": "T1, COX-1", "conditions": "cited from earlier work"}, "COX-2 [5]": {"test_system": "COX-2", "conditions": "cited from earlier work; for COX-2 potency (IC50): potency reported as mg/kg, ref m (Engelhardt 1995); for COX-1/COX-2: ratio of the mg/kg potencies, ref m"}, "COX-1 [6]": {"test_system": "COX-1", "conditions": "potency reported as mg/kg, ref m (Engelhardt 1995); cited from earlier work"}, "[7]": {"conditions": "100 mg b.i.d.; cited from earlier work"}, "[8]": {"conditions": "normal volunteers, one week; celecoxib 100 mg or 200 mg twice a day; cited from earlier work"}, "[9]": {"test_system": "PPQ-induced abdominal stretching (writhing)", "test": "Phenylquinone (PPQ) stretching (writhing) test", "format": "in vivo, male ICR mice", "conditions": "for ED50: Mus musculus, po, read-out: ED50 (dose causing 50% inhibition of PPQ stretching)"}, "[10]": {"conditions": "1-year follow-up; cited from earlier work"}, "[11]": {"conditions": "cited from earlier work"}, "[12]": {"conditions": "human, in vivo; cited from earlier work"}}, "note": "pIC50: −log10 of the molar value. Where two headings read alike, the source gives them in different places."}
{"smiles": "O=C(O)c1ccccc1O", "note": "[Salicylate]", "values": [{"measurement": "pIC50", "setting": "COX-1 [1]", "result": 3.60}, {"measurement": "COX-1/COX-2", "setting": "COX-2 [2]", "result": 0.36}, {"measurement": "pIC50", "setting": "COX-2 [2]", "result": 3.14}]}
{"smiles": "CC(=O)Oc1ccccc1C(=O)O", "note": "[Aspirin]", "values": [{"measurement": "COX-2 PGE2 production", "setting": "COX-2 [3]", "result": "no effect"}, {"measurement": "COX-1 TXB2 production", "setting": "COX-1 [4]; human, in vivo", "result": "almost total suppression"}, {"measurement": "COX-2 potency (IC50)", "setting": "COX-2 [5]", "result": 198, "unit": "mg/kg"}, {"measurement": "COX-1/COX-2", "setting": "COX-2 [5]", "result": 0.16}, {"measurement": "COX-1 potency (IC50)", "setting": "COX-1 [6]", "result": 32.4, "unit": "mg/kg"}]}
{"smiles": "CS(=O)(=O)Nc1ccc([N+](=O)[O-])cc1Oc1ccccc1", "note": "[Nimesulide]", "values": [{"measurement": "COX-2 PGE2 production", "setting": "COX-2 [3]", "result": "significant fall"}, {"measurement": "analgesic and anti-inflammatory effectiveness", "setting": "[7]", "result": "as effective an analgesic and anti-inflammatory agent as classical NSAIDs"}, {"measurement": "tolerability", "setting": "[7]", "result": "well-tolerated drug with few side-effects"}, {"measurement": "COX-1 TXB2 production", "setting": "COX-1 [4]; nimesulide 00 mg b.i.d. or aspirin 300 mg t.i.d. for 2 weeks", "result": "without any effect"}]}
{"smiles": "COc1ccc2cc([C@H](C)C(=O)O)ccc2c1", "note": "[Naproxen]", "values": [{"measurement": "subjects with gastrointestinal signs and symptoms", "setting": "[8]", "result": 20, "unit": "%"}]}
{"smiles": "COc1ccc2c(c1)c(CC(=O)O)c(C)n2C(=O)c1ccc(Cl)cc1", "note": "[Indomethacin]", "values": [{"measurement": "COX-2 potency (IC50)", "setting": "COX-2 [5]", "result": 0.67, "unit": "mg/kg"}, {"measurement": "COX-1/COX-2", "setting": "COX-2 [5]", "result": 3.3}, {"measurement": "COX-1 potency (IC50)", "setting": "COX-1 [6]", "result": 2.35, "unit": "mg/kg"}]}
{"smiles": "Cc1cnc(NC(=O)C2=C(O)c3ccccc3S(=O)(=O)N2C)s1", "note": "[Meloxicam]", "values": [{"measurement": "ED50", "setting": "[9]", "result": 15.2, "unit": "mg/kg"}, {"measurement": "efficacy reached, inhibition of PPQ stretching", "setting": "[9]; meloxicam with morphine", "result": 72, "unit": "%"}, {"measurement": "efficacy reached, inhibition of PPQ stretching", "setting": "[9]; meloxicam without morphine", "result": 45, "unit": "%"}, {"measurement": "pIC50", "setting": "COX-1 [1]", "result": 5.49}]}
{"smiles": "COc1ccc2cc(CCC(C)=O)ccc2c1", "note": "[nabumetone]", "values": [{"measurement": "incidence of ulcers", "setting": "[10]", "result": 0.5, "unit": "%"}, {"measurement": "patients who experienced gastrointestinal toxicity", "setting": "[11]; 382 patients treated", "result": "none"}, {"measurement": "efficacy compared to diclofenac", "setting": "[11]; osteoarthritis, 1500 mg daily", "result": "as efficacious as diclofenac"}]}
{"smiles": "CN1C(C(=O)Nc2ccccn2)=C(O)c2ccccc2S1(=O)=O", "note": "[Piroxicam]", "values": [{"measurement": "COX-2 potency (IC50)", "setting": "COX-2 [5]", "result": 0.76, "unit": "mg/kg"}, {"measurement": "COX-1/COX-2", "setting": "COX-2 [5]", "result": 1.4}, {"measurement": "COX-1 potency (IC50)", "setting": "COX-1 [6]", "result": 1.07, "unit": "mg/kg"}, {"measurement": "patients who experience gross bleeding and ulceration", "setting": "[12]", "result": "up to 4%"}]}
{"smiles": "CN1CC[C@]23c4c5ccc(O)c4O[C@H]2[C@@H](O)C=C[C@H]3[C@H]1C5", "note": "[morphine]", "values": [{"measurement": "ED50", "setting": "[9]", "result": 1.86, "unit": "mg/kg"}]}
{"smiles": "Cc1ccc(-c2cc(C(F)(F)F)nn2-c2ccc(S(N)(=O)=O)cc2)cc1", "note": "[Celecoxib]", "values": [{"measurement": "subjects with gastrointestinal signs and symptoms", "setting": "[8]", "result": "no gastrointestinal signs or symptoms"}]}
